# What was measured:
# hASIC1a = target: T1, hASIC1a (Homo sapiens, UniProt P78348); assay: Fluorescent calcium dye (Fluo-4-NW) assay in cells expressing hASIC1a (Example 1); format: cell-based; details: CHO cells stably expressing hASIC1a, mild acidic buffer, increasing concentrations; FIGS. 1A-1C
# T1 construct: expressed in transfected cells
# T1 sequence (P78348 1-528): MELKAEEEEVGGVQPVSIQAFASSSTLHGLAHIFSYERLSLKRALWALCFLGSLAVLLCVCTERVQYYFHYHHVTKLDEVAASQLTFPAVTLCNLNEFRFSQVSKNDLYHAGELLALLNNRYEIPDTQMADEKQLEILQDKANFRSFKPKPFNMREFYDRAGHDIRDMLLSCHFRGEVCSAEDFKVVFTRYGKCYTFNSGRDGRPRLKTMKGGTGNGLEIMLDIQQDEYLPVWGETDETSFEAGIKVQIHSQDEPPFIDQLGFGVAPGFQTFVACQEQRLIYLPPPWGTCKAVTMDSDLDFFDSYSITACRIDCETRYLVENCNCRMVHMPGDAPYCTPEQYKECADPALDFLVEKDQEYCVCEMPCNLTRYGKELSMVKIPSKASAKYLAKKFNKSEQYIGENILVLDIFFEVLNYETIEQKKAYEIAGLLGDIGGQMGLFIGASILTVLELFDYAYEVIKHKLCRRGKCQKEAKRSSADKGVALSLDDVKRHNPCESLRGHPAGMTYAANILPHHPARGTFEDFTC
# Description: ASIC1a expressing CHO cells are grown in culture medium (DMEM with 10% FBS), in polystyrene culture flasks ([…]) at 37° C. in a humidified atmosphere of 5% CO2. Confluency of cells should be 70-90% on day of plating. Cells are rinsed with 10 ml of PBS and cells are re-suspended by addition of culture medium and trituration with a 25 ml pipette. The cells are seeded at a density of approximately 10^4 cells/ml (50 μl/well and then brought to a total volume of 150 μl/well with culture medium, following 30 minutes incubation) in black-walled, clear bottom, 96-well plates pre-treated with poly-D-lysine (from BD Bioscience). Plated cells were allowed to proliferate for 48-72 h before loading with dye. Fluo-4-NW (500 μg, DiscoveRX) is dissolved in 110 μl DMSO. The Fluo-4-NW stock solution (1000×) is diluted with the assay buffer. A water soluble stock solution (100×) of probenicid (DiscoveRX) and a stock solution (1000×) of pluronic acid (P-127, Molecular Probes) are also added in the loading buffer containing Fluo-4NW dye. The culture medium is aspirated from the wells, and 100 μl of the Fluo-4-NW loading solution is added to each well. The cells are incubated at 37° C. for 30 min. followed by 30 min. incubation at room temperature. The assay buffer contains 90 mM NaCl, 5 mM KCl, 4 mM CaCl2, 0.8 mM MgSO4, 50 mM NMDG, 5 mM Glucose-D, 10 mM HEPES, pH 7.4. After the loading time, the loading buffer is not removed and the fluorescence is measured in FlexStation™ (Molecular Devices, USA), or any other suitable equipment known to the skilled in the art. Temperature: 25° C. First addition: 50 μl test solution at a rate of 26 μl/sec and a starting height of 125 μl. […] Reading intervals: pre-incubation—120 sec. antagonist phase, addition of MES at 145 sec. and reading time with agonist 100 sec (total run time of 240 sec.). Fluorescence obtained after stimulation is corrected for the mean basal fluorescence (in modified Assay Buffer). […] Gated-channel activity was determined by measuring intracellular calcium variation using a fluorescent calcium dye (Fluo-4-NW).
# [1] = system: acute paw inflammation caused by intraplantar injection of λ-carrageenan; assay: Carrageenan model for pain (Example 8); format: in vivo; details: rat; 120 mg/kg PO, 30 min prior to carrageenan; 4 h post-carrageenan
# Description: Acute inflammatory hyperalgesia is induced in rats by unilateral injection of 150 μl of a 3% solution of λ-carrageenan into the plantar surface of the left hind paw 3-5 hours prior to testing. Thermal hyperalgesia, mechanical allodynia, mechanical hyperalgesia, weight bearing asymmetry and paw inflammation were determined. Rats are pretreated with test compounds either administered intravenously (IV), by subcutaneous injection (SC) or by oral gavage (PO).
# Thermal nociceptive thresholds are determined according to the method described elsewhere (Hargreaves et al., 1988). Briefly, through the glass surface, a radiant heat source (8V, 50 W projector bulb) is focused onto the plantar surface of the hind paw. The rat's paw-withdrawal latency to this stimulus is recorded to the nearest 0.1 s. Each latency score is an average of three trials, which are separated by at least 5 min. In all rats, both the injured and uninjured hind paws are similarly tested, allowing direct comparisons between inflamed and non-inflamed paws. […]
# Mechanical hyperalgesia is determined by measuring the difference of withdrawal thresholds in response to increasing pressure in the inflamed vs contralateral paw using the Randall-Sellito Paw pressure meter (IITC Life Science) (Randall L O and Sellito J J., 1957). Briefly, rats are held in a contention jacket suspended by a stand and allowed to acclimate for 10 min. Then the tips of the paw pressure applicator are positioned close to the middle of the plantar and the dorsal area of the paw, avoiding the saphenous nerve innervations and an increasing pressure is applied until the rat removes it. Measures are performed in triplicate for each paw by alternating each paw with an interval of at least 1 min to avoid sensitization. […]
# Carrageenan induced paw oedema is measured with a plethysmometer (IITC Life Science). Briefly, a mark is made on the ankles of the rat and the ipsi and contralateral paw are submerged 3 times into water up to the mark in order to determine the paw volume by calculation of water displacement.
# [2] = system: chemically-induced spontaneous pain evoked by intraplantar injection of formalin; assay: Formalin test, model of acute tonic pain (Example 7); format: in vivo; details: rat, SC, 10 and 300 μmol/kg
# Description: Male Sprague-Dawley rats are housed together in groups of three animals under standard conditions with unrestricted access to food and water. All experiments are conducted according to the ethical guidelines for investigations of experimental pain in conscious animals (Zimmerman, 1983).
# Assessment of formalin-induced flinching behavior in normal, uninjured rats (body weight 200-300 g) is made after formalin (2.5% in saline, 50-100 μl, s.c.) is injected into the plantar surface of the hindpaw using a 27 G needle. Rats are pretreated with test compounds either administered intravenously (IV), by subcutaneous injection (SC) or by orally (PO).
# Nociceptive behavior is determined manually every 5 min by measuring the amount of time spent in each of four behavioral categories: 0, treatment of the injected hindpaw is indistinguishable from that of the contralateral paw; 1, the injected paw has little or no weight placed on it; 2, the injected paw is elevated and is not in contact with any surface; 3, the injected paw is licked, bitten, or shaken. A weighted nociceptive score, ranging from 0 to 3 is calculated by multiplying the time spent in each category by the category weight, summing these products, and dividing by the total time for each 5 min block of time. (Coderre et al., Pain 1993; 54: 43). On the basis of the resulting response patterns, […] of nociceptive behavior are identified and scored: first phase (P1; 0-5 min), interphase (Int; 6-15 min), second phase (P2; […]), phase 2A (P2A; 16-40 min) and phase 2B (P2B; 41-60 min).
# Statistical analysis is performed using the Prism™ 4.01 software package (GraphPad, San Diego, Calif., USA). The difference in response levels between treatment groups and control vehicle group is analyzed using an ANOVA followed by Bonferroni's method for post-hoc pair-wise comparisons. A p value <0.05 is considered to be significant.
# [3] = target: T2, recombinant homomeric hASIC1a channels (Homo sapiens, UniProt P78348); assay: Two-electrode voltage clamp in Xenopus laevis oocytes expressing gated ion channels (Example 4); format: cell-based
# T2 construct: expressed in transfected cells; host or cells: Xenopus laevis oocytes (nuclear microinjection of expression vector such as pcDNA3)
# T2 sequence (P78348 1-528): T1 sequence (P78348 1-528)
# [4] = target: T3, hASIC2a/3 steady state (window) current (Homo sapiens, UniProt Q16515+Q9UHC3); assay: ASIC2a/3 assay, automated two-electrode voltage clamp in oocytes microinjected with hASIC2a and hASIC3 (Example 2); format: cell-based; details: 50 μM, perfusion at pH 6.5; FIG. 8
# T3 construct: expressed in transfected cells; host or cells: Xenopus laevis oocytes, cRNA microinjection, 1:1 mass ratio
# T3 sequence (Q16515 1-512): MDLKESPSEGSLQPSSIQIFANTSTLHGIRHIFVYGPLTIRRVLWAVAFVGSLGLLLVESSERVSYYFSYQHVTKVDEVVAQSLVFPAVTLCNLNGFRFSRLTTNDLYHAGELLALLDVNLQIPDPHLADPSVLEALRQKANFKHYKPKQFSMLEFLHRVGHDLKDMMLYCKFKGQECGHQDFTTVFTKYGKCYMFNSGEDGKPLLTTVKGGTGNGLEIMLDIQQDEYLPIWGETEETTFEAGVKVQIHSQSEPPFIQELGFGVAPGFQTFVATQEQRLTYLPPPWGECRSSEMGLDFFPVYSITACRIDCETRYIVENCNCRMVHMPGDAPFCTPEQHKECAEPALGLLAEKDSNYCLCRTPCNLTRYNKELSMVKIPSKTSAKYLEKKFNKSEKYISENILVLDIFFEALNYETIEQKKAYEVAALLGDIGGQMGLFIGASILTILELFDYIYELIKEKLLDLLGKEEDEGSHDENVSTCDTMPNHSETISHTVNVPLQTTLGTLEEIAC
# T3 sequence (Q9UHC3 1-531): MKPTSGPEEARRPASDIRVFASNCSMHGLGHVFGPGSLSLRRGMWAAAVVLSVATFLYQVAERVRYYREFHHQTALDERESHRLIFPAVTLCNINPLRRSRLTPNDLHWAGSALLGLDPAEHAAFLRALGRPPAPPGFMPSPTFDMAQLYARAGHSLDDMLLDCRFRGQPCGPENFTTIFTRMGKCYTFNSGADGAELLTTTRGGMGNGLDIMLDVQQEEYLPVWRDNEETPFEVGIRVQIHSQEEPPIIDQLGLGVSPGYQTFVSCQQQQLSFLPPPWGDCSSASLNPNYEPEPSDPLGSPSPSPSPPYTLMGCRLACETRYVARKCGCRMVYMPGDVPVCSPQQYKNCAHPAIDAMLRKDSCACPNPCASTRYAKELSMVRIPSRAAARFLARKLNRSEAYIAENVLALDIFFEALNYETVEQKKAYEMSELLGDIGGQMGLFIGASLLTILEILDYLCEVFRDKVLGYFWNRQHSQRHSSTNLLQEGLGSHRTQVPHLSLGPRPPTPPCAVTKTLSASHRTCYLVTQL
# Description: The ASIC2a/3 assay involves methods and procedures commonly in use and have been extensively described in the literature.
# Briefly, a mature female frog is placed on its back after anesthesia, 20 min in 0.1% (w/v) Tricaine (Sigma), and incision is made on the lower abdomen through the skin, muscle and into the peritoneum. Lobes of ovaries are pulled out with forceps, cut and placed in a solution of Ca^2+-free Barth's with 1% (w/v) collagenase Type I (Sigma) added, for 90 minutes. The dissociated eggs are then washed with complete Barth's, supplementd with […] Gentamycin.
# Plasmids containing cDNA for ASIC2a+ASIC3 are linearized and used for cRNA synthesis. The synthesis is done according to the protocol insert of the synthesis kit (e.g. Message Machine, Ambion). The final resuspension of the cRNA is made to provide a concentration of 1 μg/μL. The cDNA's for hASIC2a and hASIC3 are mixed with a 1:1 mass ratio and injected at […] per oocyte. Micro-injected oocytes start expressing hASIC2a3 specific current after 24 h.
# The oocytes micro-injected with hASIC2a and hASIC3 cRNA's are placed in the recording chambers of the automated rig and then impaled with the voltage and current micro-electrodes. […] The voltage and current for each oocyte is recorded in one pass during both applications for later analysis. […]
Structure (SMILES),inhibition of acid-induced hASIC1a activity (intracellular calcium variation) (hASIC1a),mechanical hyperalgesia [1],size of the inflammation [1],thermal hyperalgesia [1],"pain intensity as evaluated by the licking behavior ([2]; 30 min prior to formalin, FIG. 3A)","IC50 ([3]; Table 1, generated using oocytes as in Example 4)","reduction in the current evoked by a mild pH stimulation ([3]; acid-induced inward currents in oocytes injected with hASIC1a cDNA, FIGS. 2A-2C)",inhibition of the ASIC 2a/3 current [4],"pain intensity as evaluated by the licking behavior ([2]; 60 min prior to formalin, FIG. 9A)"
Cc1cc(OC2CCN(Cc3ccccc3C(=O)O)CC2)c2cccc(F)c2n1 [Compound 1],dose-dependently inhibited,reversed,reduced,reversed,dose-dependent reduction,0.1 to 10 µM,clear dose-dependent reduction,,
O=C(O)c1ccc(Nc2nc(-c3ccc(Cl)cc3)nc3ccccc23)cc1 [Compound 111],,,,,,,,specific inhibition,dose-dependent reduction

# From patent publication US20090023773A1, “COMPOSITIONS AND METHODS FOR MODULATING GATED ION CHANNELS” (PainCeptor Pharma Corporation, priority 2007, published 2009)
